Measurements published in US7973162B2, “Modulators of muscarinic receptors” (Vertex Pharmaceuticals Incorporated, priority 2007, dated 2011).

Target: T1, M4 muscarinic receptor (Homo sapiens, UniProt P08173)
T1 construct: expressed in transfected cells; host or cells: CHO (M4-CHO)
T1 sequence (P08173 1-479): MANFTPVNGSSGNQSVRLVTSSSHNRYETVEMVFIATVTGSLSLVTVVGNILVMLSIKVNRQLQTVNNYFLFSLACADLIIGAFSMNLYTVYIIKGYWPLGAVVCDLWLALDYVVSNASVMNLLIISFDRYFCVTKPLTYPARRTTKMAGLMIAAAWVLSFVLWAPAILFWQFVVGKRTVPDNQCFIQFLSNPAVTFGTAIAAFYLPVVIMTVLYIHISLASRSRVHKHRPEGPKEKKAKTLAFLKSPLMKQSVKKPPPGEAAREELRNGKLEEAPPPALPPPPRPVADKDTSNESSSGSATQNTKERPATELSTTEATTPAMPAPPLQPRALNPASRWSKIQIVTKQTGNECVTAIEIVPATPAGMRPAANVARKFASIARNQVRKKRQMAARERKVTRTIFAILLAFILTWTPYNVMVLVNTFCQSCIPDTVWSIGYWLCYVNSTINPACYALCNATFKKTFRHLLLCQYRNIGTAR
Assay: Functional mobilization of intracellular calcium (FLIPR), M4-CHO cells
Assay type: cell-based
Details: 100% efficacy = maximum response obtained with the Carbachol control
Description: (§1) Functional Mobilization of Intracellular Calcium to Determine Muscarinic Receptor Activity:
(§2) CHO cells expressing muscarinic receptors (M1 to M5) are grown as monolayers in tissue culture flasks at 37° C. in a humidified atmosphere containing 5% CO2 and passaged every 3-5 days. The growth media is Dulbecco's modified eagles medium (DMEM, Gibco Cat# 12430-054), containing 25 mM Hepes and supplemented with Fetal Bovine Serum (Hyclone, cat #SH30071.03), 0.1 mM of MEM non-essential amino acids (GIBCO, Cat #11140-050), 1 mM MEM Sodium Pyruvate (GIBCO Cat #11360-070) and 100 units/ml of Penicillin G and 100 μg/ml of Streptomycin (GIBCO Cat #15140-122). The recombinant muscarinic receptor cell lines are grown under antibiotic pressure with media containing 25 μg/ml zeocin and 500 μg/ml G418 (M1-CHO), 4 μg/ml puromycin, 50 μg/ml zeocin and 2.5 μg/ml blasticidin (M2 and M4-CHO) or 50 μg/ml zeocin and 4 μg/ml puromycin (M3 and M5-CHO).
(§3) Cells are harvested at 80-90% confluence using Versene (GIBCO Cat #15040-066), collected by centrifugation and seeded 18-24 hrs prior to running the calcium assay at a density of 5,000-10,000 cells/well in […], clear-bottomed 384-well plates (BD Biocoat, poly-D-lysine, Cat#356663). The day of the experiment, the cells are washed with a plate washer (Bioteck Instruments, ELX 405) using bath1 buffer (140-mM NaCl, 4.5-mM KCl, 2-mM CaCl2, 1-mM MgCl2, 10-mM Hepes-Na, 10-mM Glucose, pH 7.4, with NaOH) containing 1 mM Probenecid. Next, the calcium dye Fluo-3 (25 μl/well of Fluo-3 AM at 4 μM, Molecular Probes F-1241, in Bath 1 buffer containing 1 mM Probenecid) is added to the 25 μl of Bath 1 remaining in each well after the plate wash and the dye is loaded at 37° C. in the tissue culture incubator for 60-90 min. The fluorescent dye is removed using the plate washer with Bath 1 containing 1 mM Probenecid, leaving 25 μl/well of this solution after the wash. Alternatively, cells can be loaded with the calcium indicator from Molecular Devices (Calcium 3 Assay Reagents, Cat #R7181) adding 5 μl of a 5× solution dye in Bath 1 containing 1 mM Probenecid (10 ml per dye flask cat #R7182 to generate a solution 20×) to 20 μl of the same buffer. After loading for 60 min, the experiment can be run without having to remove the dye.
(§4) Compounds are prepared at a 2× fold concentration in a 96-well plate (round bottom, Costar Corning cat #3656), by reconstituting the pre-spotted compounds in bath 1 containing 1 mM probenecid. The final concentration DMSO is 0.5%, and the amount of DMSO is normalized across the assay plate. To determine an agonist action of the compounds on muscarinic receptors, the reconstituted compounds are added (25 μl compound/well) to the cell assay plate (containing 25 μl/well) using the multi-channel robotic system of the FLIPR 3 Instrument (Molecular Devices, Sunnyvale, Calif.). To determine a functional inhibitory action of the compounds on muscarinic receptors, the reconstituted compounds are added (25 μl compound/well) to the assay plate and pre-incubated for 15 min prior to adding 25 μl of Carbachol at 3× the EC80 for each muscarinic subtype. Alternatively, the compounds can be co-applied simultaneously with the agonist. In both assay modes, the fluorescence is recorded for 60 sec (excitation wavelength is […] and emission wavelength 540 nm) using the FLIPR 3 instrument.
(§5) The potency, efficacy and selectivity of the muscarinic compounds were evaluated by screening the compound activity across the whole family (M1 to M5 cells). Compounds were also screened for activity on other proteins such as other GPCRs and ion channels to determine selectivity on M4 receptors.
(§6) Examples of activities and efficacies of the muscarinic compounds of formulae (I, Ia, and Ib) on modulating M1 and M4 receptors are shown below in Table 3. […]

Structure (SMILES)	M4 Efficacy	Emax
CN1C(=O)C[C@@H]2CC3(CCN(C4CCCCC4)CC3)c3ccccc3[C@@H]21 [Compound 24]	++ (efficacy was calculated to be from 100% to 25%)	
O=C1C[C@@H]2CC3(CCN(C4CCCCC4)CC3)c3ccccc3[C@@H]2N1 [Compound 19]	++ (efficacy was calculated to be from 100% to 25%)	
O=C1C[C@@H]2CC3(CCN(C[C@@H]4C[C@H]5C=C[C@H]4C5)CC3)c3ccccc3[C@@H]2N1 [Compound 25]		25 to 100%

Same assay, conditions: CHO cells expressing M4, calcium mobilization

Structure (SMILES)	EC50
CN1C(=O)C[C@@H]2CC3(CCN(C4CCCCC4)CC3)c3ccccc3[C@@H]21 [Compound 24]	< 2 µM
O=C1C[C@@H]2CC3(CCN(C4CCCCC4)CC3)c3ccccc3[C@@H]2N1 [Compound 19]	< 2 µM
O=C1C[C@@H]2CC3(CCN(C[C@@H]4C[C@H]5C=C[C@H]4C5)CC3)c3ccccc3[C@@H]2N1 [Compound 25]	< 2 µM

Target: T2, M3 muscarinic receptor (Homo sapiens, UniProt P20309)
T2 construct: expressed in transfected cells; host or cells: CHO (M3-CHO)
Assay: Functional mobilization of intracellular calcium (FLIPR), M3-CHO cells
Assay type: cell-based
Details: 100% efficacy = maximum response obtained with the Carbachol control
Description: as §1, §2, §3, §4, §5, §6

T2 sequence (P20309 whole entry): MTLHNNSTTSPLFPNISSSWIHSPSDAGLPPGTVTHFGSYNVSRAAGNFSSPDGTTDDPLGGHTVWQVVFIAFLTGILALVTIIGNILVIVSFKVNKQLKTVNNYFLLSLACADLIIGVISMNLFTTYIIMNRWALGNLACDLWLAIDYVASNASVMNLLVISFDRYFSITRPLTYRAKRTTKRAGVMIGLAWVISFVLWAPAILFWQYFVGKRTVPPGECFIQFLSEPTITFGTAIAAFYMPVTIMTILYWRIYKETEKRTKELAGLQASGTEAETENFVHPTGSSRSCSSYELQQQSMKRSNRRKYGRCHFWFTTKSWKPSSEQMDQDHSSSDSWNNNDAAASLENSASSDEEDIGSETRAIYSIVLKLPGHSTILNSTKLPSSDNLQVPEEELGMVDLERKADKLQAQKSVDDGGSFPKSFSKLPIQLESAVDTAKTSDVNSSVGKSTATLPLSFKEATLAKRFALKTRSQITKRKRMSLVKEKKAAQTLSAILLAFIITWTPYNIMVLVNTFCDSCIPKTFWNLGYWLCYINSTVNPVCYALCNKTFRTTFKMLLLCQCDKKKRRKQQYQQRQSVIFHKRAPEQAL

Structure (SMILES)	M3 Efficacy	Emax
CN1C(=O)C[C@@H]2CC3(CCN(C4CCCCC4)CC3)c3ccccc3[C@@H]21 [Compound 24]	+ (efficacy was calculated to be less than 25%)	
O=C1C[C@@H]2CC3(CCN(C4CCCCC4)CC3)c3ccccc3[C@@H]2N1 [Compound 19]	+ (efficacy was calculated to be less than 25%)	
O=C1C[C@@H]2CC3(CCN(C[C@@H]4C[C@H]5C=C[C@H]4C5)CC3)c3ccccc3[C@@H]2N1 [Compound 25]		25 to 100%

Same assay, conditions: CHO cells expressing M3, calcium mobilization

Structure (SMILES)	EC50
CN1C(=O)C[C@@H]2CC3(CCN(C4CCCCC4)CC3)c3ccccc3[C@@H]21 [Compound 24]	> 5 µM
O=C1C[C@@H]2CC3(CCN(C4CCCCC4)CC3)c3ccccc3[C@@H]2N1 [Compound 19]	> 5 µM
O=C1C[C@@H]2CC3(CCN(C[C@@H]4C[C@H]5C=C[C@H]4C5)CC3)c3ccccc3[C@@H]2N1 [Compound 25]	> 5 µM

Target: T3, M1 muscarinic receptor (Homo sapiens, UniProt P11229)
T3 construct: expressed in transfected cells; host or cells: CHO (M1-CHO)
T3 sequence (P11229 1-460): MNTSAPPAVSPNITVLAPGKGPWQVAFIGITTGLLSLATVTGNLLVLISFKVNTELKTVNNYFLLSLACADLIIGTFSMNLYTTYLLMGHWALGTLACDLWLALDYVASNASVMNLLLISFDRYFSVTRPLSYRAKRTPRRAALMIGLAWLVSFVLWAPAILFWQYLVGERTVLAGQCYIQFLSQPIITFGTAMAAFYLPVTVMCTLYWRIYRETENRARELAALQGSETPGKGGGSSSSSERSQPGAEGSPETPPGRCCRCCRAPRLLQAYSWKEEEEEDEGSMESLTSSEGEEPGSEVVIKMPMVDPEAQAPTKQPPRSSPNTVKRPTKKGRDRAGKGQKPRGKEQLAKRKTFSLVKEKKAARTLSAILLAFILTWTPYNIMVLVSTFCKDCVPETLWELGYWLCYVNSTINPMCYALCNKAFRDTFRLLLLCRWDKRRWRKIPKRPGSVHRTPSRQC
Assay: Functional mobilization of intracellular calcium (FLIPR), M1-CHO cells
Assay type: cell-based
Details: 100% efficacy = maximum response obtained with the Carbachol control
Description: as §1, §2, §3, §4, §5, §6

Structure (SMILES)	M1 Efficacy	Emax
CN1C(=O)C[C@@H]2CC3(CCN(C4CCCCC4)CC3)c3ccccc3[C@@H]21 [Compound 24]	++ (efficacy was calculated to be from 100% to 25%)	
O=C1C[C@@H]2CC3(CCN(C4CCCCC4)CC3)c3ccccc3[C@@H]2N1 [Compound 19]	++ (efficacy was calculated to be from 100% to 25%)	
O=C1C[C@@H]2CC3(CCN(C[C@@H]4C[C@H]5C=C[C@H]4C5)CC3)c3ccccc3[C@@H]2N1 [Compound 25]		25 to 100%

Same assay, conditions: CHO cells expressing M1, calcium mobilization

Structure (SMILES)	EC50
CN1C(=O)C[C@@H]2CC3(CCN(C4CCCCC4)CC3)c3ccccc3[C@@H]21 [Compound 24]	> 5 µM
O=C1C[C@@H]2CC3(CCN(C4CCCCC4)CC3)c3ccccc3[C@@H]2N1 [Compound 19]	< 2 µM
O=C1C[C@@H]2CC3(CCN(C[C@@H]4C[C@H]5C=C[C@H]4C5)CC3)c3ccccc3[C@@H]2N1 [Compound 25]	< 2 µM

Target: T4, M2 muscarinic receptor (Homo sapiens, UniProt P08172)
T4 construct: expressed in transfected cells; host or cells: CHO (M2-CHO)
T4 sequence (P08172 1-466): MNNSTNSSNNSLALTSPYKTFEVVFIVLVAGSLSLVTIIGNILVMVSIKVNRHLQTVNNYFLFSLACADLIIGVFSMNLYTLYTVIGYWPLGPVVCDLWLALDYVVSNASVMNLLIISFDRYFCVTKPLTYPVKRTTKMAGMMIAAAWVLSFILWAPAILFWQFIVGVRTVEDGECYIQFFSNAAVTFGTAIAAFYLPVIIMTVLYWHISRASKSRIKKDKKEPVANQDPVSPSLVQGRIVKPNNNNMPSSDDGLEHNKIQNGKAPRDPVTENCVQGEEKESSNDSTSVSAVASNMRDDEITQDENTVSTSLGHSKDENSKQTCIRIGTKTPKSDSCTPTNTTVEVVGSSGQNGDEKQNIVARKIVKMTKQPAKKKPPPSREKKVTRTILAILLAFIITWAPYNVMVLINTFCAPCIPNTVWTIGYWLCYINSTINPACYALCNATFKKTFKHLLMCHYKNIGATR
Assay: Functional mobilization of intracellular calcium (FLIPR), M2-CHO cells
Assay type: cell-based
Details: 100% efficacy = maximum response obtained with the Carbachol control
Description: as §1, §2, §3, §4, §5, §6

Structure (SMILES)	M2 Efficacy	Emax
CN1C(=O)C[C@@H]2CC3(CCN(C4CCCCC4)CC3)c3ccccc3[C@@H]21 [Compound 24]	+ (efficacy was calculated to be less than 25%)	
O=C1C[C@@H]2CC3(CCN(C4CCCCC4)CC3)c3ccccc3[C@@H]2N1 [Compound 19]	++ (efficacy was calculated to be from 100% to 25%)	
O=C1C[C@@H]2CC3(CCN(C[C@@H]4C[C@H]5C=C[C@H]4C5)CC3)c3ccccc3[C@@H]2N1 [Compound 25]		25 to 100%

Same assay, conditions: CHO cells expressing M2, calcium mobilization

Structure (SMILES)	EC50
CN1C(=O)C[C@@H]2CC3(CCN(C4CCCCC4)CC3)c3ccccc3[C@@H]21 [Compound 24]	> 5 µM
O=C1C[C@@H]2CC3(CCN(C4CCCCC4)CC3)c3ccccc3[C@@H]2N1 [Compound 19]	2 to 5 µM
O=C1C[C@@H]2CC3(CCN(C[C@@H]4C[C@H]5C=C[C@H]4C5)CC3)c3ccccc3[C@@H]2N1 [Compound 25]	< 2 µM
